Results as given in article PMC8528214 (RSC Medicinal Chemistry, 2021).

Assays:
MMP-3 = MMP-3 (Homo sapiens, UniProt P08254); experiment: MMP in vitro inhibition assay, MMP-3; type: biochemical
collagenase H (ColH) = conditions: cited from earlier work; for ColH inhibitory activity: tested in their thiocarbamate form
MMP-7 = target: T1, MMP-7 (Homo sapiens, UniProt P09237); experiment: MMP in vitro inhibition assay, MMP-7; type: biochemical
T1 sequence (P09237 95-267): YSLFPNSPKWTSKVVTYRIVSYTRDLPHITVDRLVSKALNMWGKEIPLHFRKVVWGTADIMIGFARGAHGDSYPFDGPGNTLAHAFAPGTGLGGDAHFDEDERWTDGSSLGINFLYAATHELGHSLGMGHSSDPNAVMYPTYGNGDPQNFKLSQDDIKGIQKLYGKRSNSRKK

zebrafish embryos = conditions: cited from earlier work
HepG2 = conditions: at 100 μM; cited from earlier work
HDAC-8 = target: T2, HDAC-8 (Homo sapiens, UniProt Q9BY41); experiment: HDAC in vitro inhibition assay; type: biochemical
T2 sequence (Q9BY41 1-377): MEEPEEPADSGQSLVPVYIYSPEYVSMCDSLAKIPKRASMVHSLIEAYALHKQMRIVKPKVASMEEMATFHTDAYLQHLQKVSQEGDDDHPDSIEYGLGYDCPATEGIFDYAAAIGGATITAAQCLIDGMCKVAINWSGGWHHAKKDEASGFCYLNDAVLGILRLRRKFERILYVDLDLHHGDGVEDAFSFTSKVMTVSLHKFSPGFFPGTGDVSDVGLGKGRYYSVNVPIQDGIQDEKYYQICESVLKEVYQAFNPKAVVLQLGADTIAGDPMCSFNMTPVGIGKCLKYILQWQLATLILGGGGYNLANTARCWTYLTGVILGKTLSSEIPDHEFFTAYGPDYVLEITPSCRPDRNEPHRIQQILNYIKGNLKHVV

[1] = tested on: Galleria mellonella larvae infection model; conditions: cited from earlier work
MMP-14 = MMP-14 (Homo sapiens, UniProt P50281); experiment: MMP in vitro inhibition assay, MMP-14; type: biochemical
MMP-8 = MMP-8 (Homo sapiens, UniProt P22894); experiment: MMP in vitro inhibition assay, MMP-8; type: biochemical
MMP-8, sequence (P22894 101-467): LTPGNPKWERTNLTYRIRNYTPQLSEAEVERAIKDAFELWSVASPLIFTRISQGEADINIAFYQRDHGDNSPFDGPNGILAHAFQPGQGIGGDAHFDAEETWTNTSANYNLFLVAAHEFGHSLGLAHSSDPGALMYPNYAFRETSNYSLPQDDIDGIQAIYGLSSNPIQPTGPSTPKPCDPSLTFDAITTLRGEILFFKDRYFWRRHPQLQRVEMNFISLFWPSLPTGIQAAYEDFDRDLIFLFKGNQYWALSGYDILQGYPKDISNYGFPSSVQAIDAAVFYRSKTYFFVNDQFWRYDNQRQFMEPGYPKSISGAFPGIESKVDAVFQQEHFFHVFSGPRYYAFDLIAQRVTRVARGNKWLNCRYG

HEK293 = conditions: at 100 μM; cited from earlier work
MMP-1 = target: T3, MMP-1 (Homo sapiens, UniProt P03956); experiment: MMP in vitro inhibition assay, MMP-1; type: biochemical
T3 sequence (P03956 100-469): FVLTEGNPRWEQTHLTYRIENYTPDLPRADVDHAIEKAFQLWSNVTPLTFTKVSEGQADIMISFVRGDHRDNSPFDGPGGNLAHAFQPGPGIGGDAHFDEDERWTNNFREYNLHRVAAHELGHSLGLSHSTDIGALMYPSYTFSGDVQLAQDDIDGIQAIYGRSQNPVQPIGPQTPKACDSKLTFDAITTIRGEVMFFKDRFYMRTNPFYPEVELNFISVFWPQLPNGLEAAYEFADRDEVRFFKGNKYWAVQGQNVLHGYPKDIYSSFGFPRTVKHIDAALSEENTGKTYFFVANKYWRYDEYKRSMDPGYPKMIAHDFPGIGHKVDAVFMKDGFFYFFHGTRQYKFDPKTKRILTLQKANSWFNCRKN

A549 = conditions: at 100 μM; cited from earlier work
HDAC-3 = HDAC-3 (Homo sapiens, UniProt O15379); type: biochemical
HDAC-3, sequence (O15379 whole entry): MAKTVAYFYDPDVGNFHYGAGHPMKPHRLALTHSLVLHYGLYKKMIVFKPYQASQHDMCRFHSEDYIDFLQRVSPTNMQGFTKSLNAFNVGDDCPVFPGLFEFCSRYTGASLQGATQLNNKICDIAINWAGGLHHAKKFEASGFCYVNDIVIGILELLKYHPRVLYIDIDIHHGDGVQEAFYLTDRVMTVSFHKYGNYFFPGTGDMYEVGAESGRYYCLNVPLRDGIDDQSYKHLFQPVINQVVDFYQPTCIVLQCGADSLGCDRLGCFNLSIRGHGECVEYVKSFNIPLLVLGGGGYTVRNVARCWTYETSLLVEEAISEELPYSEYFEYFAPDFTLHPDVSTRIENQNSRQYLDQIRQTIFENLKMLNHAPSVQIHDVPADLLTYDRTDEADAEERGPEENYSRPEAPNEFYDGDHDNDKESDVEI
HDAC-3, sequence (Q9Y618 395-489 partner limits assumed): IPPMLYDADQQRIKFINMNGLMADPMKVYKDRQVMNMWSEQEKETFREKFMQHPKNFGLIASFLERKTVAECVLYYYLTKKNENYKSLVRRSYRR

MMP-2 = target: T4, MMP-2 (Homo sapiens, UniProt P08253); experiment: MMP in vitro inhibition assay, MMP-2; type: biochemical
T4 sequence (P08253 110-660): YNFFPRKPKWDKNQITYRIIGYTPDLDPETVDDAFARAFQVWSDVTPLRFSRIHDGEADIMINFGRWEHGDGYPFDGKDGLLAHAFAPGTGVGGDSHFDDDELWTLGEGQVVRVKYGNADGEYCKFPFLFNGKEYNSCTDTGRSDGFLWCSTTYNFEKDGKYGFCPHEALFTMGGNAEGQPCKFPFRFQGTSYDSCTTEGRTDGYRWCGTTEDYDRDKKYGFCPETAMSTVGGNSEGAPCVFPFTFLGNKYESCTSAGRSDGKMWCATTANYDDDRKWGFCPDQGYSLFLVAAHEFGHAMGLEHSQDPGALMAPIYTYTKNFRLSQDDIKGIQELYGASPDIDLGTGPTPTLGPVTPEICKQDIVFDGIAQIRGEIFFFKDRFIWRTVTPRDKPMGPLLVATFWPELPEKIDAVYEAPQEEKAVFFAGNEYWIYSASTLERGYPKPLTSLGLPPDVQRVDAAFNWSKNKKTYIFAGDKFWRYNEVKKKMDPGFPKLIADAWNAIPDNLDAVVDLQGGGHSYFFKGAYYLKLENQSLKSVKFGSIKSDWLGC

[2] = tested on: NDM-1-expressing K. pneumoniae (T2301); experiment: Growth inhibition assay; conditions: imipenem alone at 8 μg mL−1 (0.5× MIC)

MMP-3, sequence (P08254 100-477): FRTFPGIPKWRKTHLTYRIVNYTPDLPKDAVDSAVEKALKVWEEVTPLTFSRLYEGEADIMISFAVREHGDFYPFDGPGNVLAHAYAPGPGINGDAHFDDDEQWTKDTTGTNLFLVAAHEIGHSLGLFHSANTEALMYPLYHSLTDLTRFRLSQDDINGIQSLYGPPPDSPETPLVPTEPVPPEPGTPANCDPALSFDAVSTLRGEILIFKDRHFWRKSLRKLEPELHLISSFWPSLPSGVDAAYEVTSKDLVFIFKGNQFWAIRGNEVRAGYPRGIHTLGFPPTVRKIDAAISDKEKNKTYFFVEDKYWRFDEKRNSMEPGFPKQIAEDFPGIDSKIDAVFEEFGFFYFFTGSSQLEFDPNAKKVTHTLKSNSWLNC

For O=C(CS)Nc1ccc(Cl)c(Cl)c1 [Compound 1], the “inhibition at 100 μM, MMP-3” value (MMP-3; 100 μM) is given as “no inhibition”, the inhibition at 100 µM (MMP-3; read-out: inhibition at 100 μM, MMP-3) is given as at most 10% and the ColH inhibitory activity (collagenase H (ColH)) is given as “micromolar activities”. For the same compound, the “inhibition at 100 μM, MMP-7” value (MMP-7; 100 μM) was “no inhibition”, the inhibition at 100 µM (MMP-7; read-out: inhibition at 100 μM, MMP-7) was at most 10% and the “maximum tolerated concentration (MTC)” value (zebrafish embryos) was 10 µM. The “cytotoxicity against HepG2” value (HepG2) was “did not show any cytotoxicity”, the “inhibition at 100 μM, HDAC-8” value (HDAC-8) was “no inhibition” and the in vivo efficacy [1] was “in vivo efficacy”. For the same compound, the “inhibition at 100 μM, MMP-14” value (MMP-14; 100 μM) was “no inhibition”, the inhibition at 100 µM (MMP-14; read-out: inhibition at 100 μM, MMP-14) was at most 10% and the “inhibition at 100 μM, MMP-8” value (MMP-8; 100 μM) was “no inhibition”. The inhibition at 100 µM (MMP-8; read-out: inhibition at 100 μM, MMP-8) was at most 10%, the “cytotoxicity against HEK293” value (HEK293) was “did not show any cytotoxicity” and the “inhibition at 100 μM, MMP-1” value (MMP-1; 100 μM) was “no inhibition”. The inhibition at 100 µM (MMP-1; read-out: inhibition at 100 μM, MMP-1) was at most 10%, the “cytotoxicity against A549” value (A549) was “did not show any cytotoxicity” and the “inhibition at 100 μM, HDAC-3” value (HDAC-3) was “no inhibition”. The “inhibition at 100 μM, MMP-2” value (MMP-2; 100 μM) was “no inhibition” and the inhibition at 100 µM (MMP-2; read-out: inhibition at 100 μM, MMP-2) was at most 10%.
In the case of O=C(CS)Nc1ccccc1Cl [Compound 26], the ColH inhibitory activity (collagenase H (ColH)) is listed as “micromolar activities”.
For CC(=O)c1ccc(NC(=O)CS)cc1 [Compound 28], the ColH inhibitory potency (collagenase H (ColH)) is listed as “nanomolar”.
In the case of C[C@@H](O)[C@H]1C(=O)N2C(C(=O)O)=C(SCCNC=N)C[C@H]12 [imipenem], the “Growth of imipenem-treated bacteria vs imipenem-free control after 24 hours” value [2] was “no relevant differences”.
